How the values were obtained:
[1] = target: T1, AMPK beta 1 (Homo sapiens, UniProt Q13131+Q9Y478); assay: in-cell-ELISA for phospho-ACC, Activity beta 1; assay type: cell-based; conditions: 2 h, serum free DMEM, percentage activation over vehicle control, cell line not given (HepG2 or C2C12 myotubes)
T1 construct: in-cell-ELISA for phospho-ACC (Acetyl-CoA carboxylase 1) in HepG2 cells (liver); endogenous in cells; host or cells: HepG2
Procedure: (§1) Activation of AMPK by various compounds were measured using in-cell-ELISA for phospho-ACC (Acetyl-CoA carboxylase 1) in HepG2 cells (liver) and fully differentiated myotubes (C2C12 cells) grown in 96 well plate. Cells were treated with 1 μM of the molecule for 2 h in serum free DMEM media. After methanol fixation, cells were blocked with BSA followed by addition of anti-phospho ACC antibody (Cell Signaling) and HRP conjugated secondary antibody. Absorbance values taken at 450 nm and were normalized with total DNA (Hoechest stain). Results were expressed as percentage activation over vehicle control.

[2] = target: T2, AMPK beta 2 (Mus musculus, UniProt Q6PAM0+Q8BRK8); assay: in-cell-ELISA for phospho-ACC, Activity beta 2; assay type: cell-based; conditions: 2 h, serum free DMEM, percentage activation over vehicle control, cell line not given (HepG2 or C2C12 myotubes)
T2 construct: fully differentiated myotubes (C2C12 cells) grown in 96 well plate; endogenous in cells; host or cells: C2C12 myotubes
Procedure: as §1

T2 sequence (Q6PAM0 whole entry): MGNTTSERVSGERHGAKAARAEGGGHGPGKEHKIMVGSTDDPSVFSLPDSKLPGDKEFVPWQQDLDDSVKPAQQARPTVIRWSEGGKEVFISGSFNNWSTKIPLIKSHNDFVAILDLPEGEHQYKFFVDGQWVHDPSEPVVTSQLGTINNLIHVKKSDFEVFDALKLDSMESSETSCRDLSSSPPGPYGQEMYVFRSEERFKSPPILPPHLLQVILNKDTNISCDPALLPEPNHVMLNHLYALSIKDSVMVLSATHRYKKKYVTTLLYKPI
T2 sequence (Q8BRK8 whole entry): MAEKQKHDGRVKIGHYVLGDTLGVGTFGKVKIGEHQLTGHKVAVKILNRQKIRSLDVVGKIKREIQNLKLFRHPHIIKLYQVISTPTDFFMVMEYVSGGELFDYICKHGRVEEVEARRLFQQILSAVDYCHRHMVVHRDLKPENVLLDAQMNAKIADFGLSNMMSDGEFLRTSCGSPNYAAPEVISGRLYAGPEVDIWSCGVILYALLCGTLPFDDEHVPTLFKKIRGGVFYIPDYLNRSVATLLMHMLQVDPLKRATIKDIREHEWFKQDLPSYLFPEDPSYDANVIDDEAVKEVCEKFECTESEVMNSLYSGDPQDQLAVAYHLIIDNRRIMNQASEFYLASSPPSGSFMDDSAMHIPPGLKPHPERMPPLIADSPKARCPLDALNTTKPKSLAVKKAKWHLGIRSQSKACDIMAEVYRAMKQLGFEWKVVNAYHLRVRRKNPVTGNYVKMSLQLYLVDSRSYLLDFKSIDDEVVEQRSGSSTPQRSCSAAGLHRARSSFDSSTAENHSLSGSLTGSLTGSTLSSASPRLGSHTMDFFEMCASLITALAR
T2 sequence (O54950 whole entry partner): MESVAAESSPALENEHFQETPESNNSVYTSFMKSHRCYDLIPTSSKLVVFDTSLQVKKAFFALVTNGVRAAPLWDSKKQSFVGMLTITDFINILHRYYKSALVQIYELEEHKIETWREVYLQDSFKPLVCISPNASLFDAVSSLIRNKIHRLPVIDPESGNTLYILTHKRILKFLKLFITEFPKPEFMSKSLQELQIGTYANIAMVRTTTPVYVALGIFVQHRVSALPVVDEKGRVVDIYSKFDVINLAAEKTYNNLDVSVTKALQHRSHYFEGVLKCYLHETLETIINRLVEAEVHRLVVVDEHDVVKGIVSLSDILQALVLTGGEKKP
T1 sequence (Q9Y478 whole entry): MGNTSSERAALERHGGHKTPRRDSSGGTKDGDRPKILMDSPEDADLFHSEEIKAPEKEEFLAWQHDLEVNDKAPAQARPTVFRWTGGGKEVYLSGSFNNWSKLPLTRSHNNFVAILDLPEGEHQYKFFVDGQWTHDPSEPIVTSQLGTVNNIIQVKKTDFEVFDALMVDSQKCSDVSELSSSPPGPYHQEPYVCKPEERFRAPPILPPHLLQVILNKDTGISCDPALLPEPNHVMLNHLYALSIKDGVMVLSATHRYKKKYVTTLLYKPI
T1 sequence (Q13131 whole entry): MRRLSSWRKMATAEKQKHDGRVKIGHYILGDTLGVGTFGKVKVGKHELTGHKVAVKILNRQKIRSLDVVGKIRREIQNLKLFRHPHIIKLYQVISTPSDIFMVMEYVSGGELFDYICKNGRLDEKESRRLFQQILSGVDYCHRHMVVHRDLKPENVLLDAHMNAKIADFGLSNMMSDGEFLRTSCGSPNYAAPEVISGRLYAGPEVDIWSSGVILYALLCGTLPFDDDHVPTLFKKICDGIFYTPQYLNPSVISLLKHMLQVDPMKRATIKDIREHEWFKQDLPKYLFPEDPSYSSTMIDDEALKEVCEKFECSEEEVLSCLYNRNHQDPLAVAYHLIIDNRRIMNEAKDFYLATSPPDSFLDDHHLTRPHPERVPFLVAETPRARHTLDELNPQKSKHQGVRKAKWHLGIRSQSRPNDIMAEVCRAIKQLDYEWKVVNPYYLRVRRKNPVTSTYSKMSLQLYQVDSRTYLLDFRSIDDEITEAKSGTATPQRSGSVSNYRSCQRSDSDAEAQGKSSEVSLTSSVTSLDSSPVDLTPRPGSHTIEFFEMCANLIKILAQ
T1 sequence (P54619 whole entry partner): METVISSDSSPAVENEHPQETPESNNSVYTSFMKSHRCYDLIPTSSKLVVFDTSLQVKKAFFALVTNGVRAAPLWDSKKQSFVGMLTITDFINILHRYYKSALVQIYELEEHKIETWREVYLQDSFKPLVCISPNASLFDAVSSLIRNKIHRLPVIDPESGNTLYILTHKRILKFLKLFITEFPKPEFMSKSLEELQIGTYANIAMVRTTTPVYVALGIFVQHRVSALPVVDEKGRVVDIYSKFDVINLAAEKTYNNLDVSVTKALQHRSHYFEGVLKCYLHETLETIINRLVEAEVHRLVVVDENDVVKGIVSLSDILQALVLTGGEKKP

## Cn1nc(C=C2C(=O)Nc3cc(Cl)c(-c4ccc(-c5ccccc5O)cc4)cc32)cc1C(=O)[O-].[Na+] (mixture of isomers) [Example 21, Sodium 3-{(E/Z)-[6-chloro-5-(2′-hydroxybiphenyl-4-yl)-2-oxo-1,2-dihydro-3H-indol-3-ylidene]methyl}-1-methyl-1H-pyrazole-5-carboxylate]
[1]
  Activity beta 1 (at 1 uM): * (* <20)

## Cc1ccc(C=C2C(=O)Nc3cc(Cl)c(-c4ccc(-c5ccccc5O)cc4)cc32)cc1CC(=O)O (racemic) [Example 1, (5-{(E/Z)-[6-Chloro-5-(2′-hydroxybiphenyl-4-yl)-2-oxo-1,2-dihydro-3H-indol-3-ylidene]methyl}-2-methylphenyl)acetic acid]
[1]
  activation at 1 µM: > 40%

## O=C(O)Cc1cc(C=C2C(=O)Nc3cc(Cl)c(-c4ccc(-c5ccccc5O)cc4)cc32)ccc1O (racemic) [Example 12, (5-{(E/Z)-[6-Chloro-5-(2′-hydroxybiphenyl-4-yl)-2-oxo-1,2-dihydro-3H-indol-3-ylidene]methyl}-2-hydroxyphenyl)acetic acid]
[1]
  activation at 1 µM: < 20%

## Cn1ccc(C=C2C(=O)N(CC(=O)O)c3cc(Cl)c(-c4ccc(-c5ccccc5O)cc4)cc32)c1 (racemic) [Example 25, {(3E/32)-6-Chloro-5-(2′-hydroxybiphenyl-4-yl)-3-[(1-methyl-1H-pyrrol-3-yl)methylidene]-2-oxo-2,3-dihydro-1H-indol-1-yl}acetic acid]
[1]
  activation at 1 µM: < 20%

## Cc1ccc(C=C2C(=O)Nc3cc(F)c(-c4cccc(-c5ccccc5O)c4)cc32)cc1CC(=O)O (single isomer, unassigned) [Example 30, (5-{(E/Z)-[6-Fluoro-5-(2′-hydroxybiphenyl-3-yl)-2-oxo-1,2-dihydro-3H-indol-3-ylidene]methyl}-2-methylphenyl)acetic acid]
[1]
  activation at 1 µM: < 20%

## Cc1ccc(C=C2C(=O)Nc3cc(F)c(-c4ccc(-c5ccccc5O)cc4)cc32)cc1C(=O)O [Example 2]
[1]
  activation at 1 µM: 20 to 40%

## Cc1ccc(C=C2C(=O)Nc3cc(F)c(-c4ccc(-c5ccccc5O)cc4)cc32)cc1CC(=O)O [Example 3]
[1]
  activation at 1 µM: > 40%

## O=C(O)Cc1ccc(C=C2C(=O)Nc3cc(F)c(-c4ccc(-c5ccccc5O)cc4)cc32)cc1 [Example 4]
[1]
  activation at 1 µM: < 20%

## O=C(O)Cc1cccc(C=C2C(=O)Nc3cc(F)c(-c4ccc(-c5ccccc5O)cc4)cc32)c1 [Example 5]
[1]
  activation at 1 µM: > 40%

## COc1ccc(C=C2C(=O)Nc3cc(F)c(-c4ccc(-c5ccccc5O)cc4)cc32)cc1CC(=O)O [Example 7]
[1]
  activation at 1 µM: > 40%

## CC(=C1C(=O)Nc2cc(F)c(-c3ccc(-c4ccccc4O)cc3)cc21)c1cccc(CC(=O)O)c1 [Example 8]
[1]
  activation at 1 µM: < 20%

## Cc1ccc(C=C2C(=O)Nc3cc(Cl)c(-c4ccc(-c5ccccc5O)cc4)cc32)cc1C(=O)O [Example 9]
[1]
  activation at 1 µM: > 40%

## O=C(O)COc1cccc(C=C2C(=O)Nc3cc(Cl)c(-c4ccc(-c5ccccc5O)cc4)cc32)c1 [Example 10]
[1]
  activation at 1 µM: < 20%

## COc1ccc(C=C2C(=O)Nc3cc(Cl)c(-c4ccc(-c5ccccc5O)cc4)cc32)cc1CC(=O)O [Example 11]
[1]
  activation at 1 µM: > 40%
[2]
  Activity beta 2 (at 1 uM): *** (*** >40)

## Cn1cc(C=C2C(=O)Nc3cc(Cl)c(-c4ccc(-c5ccccc5O)cc4)cc32)cc1C(=O)O [Example 13]
[1]
  activation at 1 µM: > 40%
[2]
  Activity beta 2 (at 1 uM): *** (*** >40)

## Cn1c(C=C2C(=O)Nc3cc(Cl)c(-c4ccc(-c5ccccc5O)cc4)cc32)ccc1C(=O)O [Example 14]
[1]
  activation at 1 µM: 20 to 40%

## O=C1Nc2cc(Cl)c(-c3ccc(-c4ccccc4O)cc3)cc2C1=Cc1ccc(C(=O)O)[nH]1 [Example 15]
[1]
  activation at 1 µM: < 20%

## O=C1Nc2cc(Cl)c(-c3ccc(-c4ccccc4O)cc3)cc2C1=Cc1c[nH]c(C(=O)O)c1 [Example 16]
[1]
  activation at 1 µM: < 20%

## Cn1cc(CC(=O)O)cc1C=C1C(=O)Nc2cc(Cl)c(-c3ccc(-c4ccccc4O)cc3)cc21 [Example 17]
[1]
  activation at 1 µM: < 20%

## Cc1ccc(C=C2C(=O)Nc3cc(Cl)c(-c4ccc(-c5ccccc5O)cc4)cc32)cc1 [Example 18]
[1]
  activation at 1 µM: < 20%

## Cn1ccc(C=C2C(=O)Nc3cc(Cl)c(-c4ccc(-c5ccccc5O)cc4)cc32)c1 [Example 19]
[1]
  activation at 1 µM: > 40%

## Cn1nc(/C=C2\C(=O)Nc3cc(Cl)c(-c4ccc(-c5ccccc5O)cc4)cc32)cc1C(=O)O [Example 20, 3-{(Z)-[6-chloro-5-(2′-hydroxybiphenyl-4-yl)-2-oxo-1,2-dihydro-3H-indol-3-ylidene]methyl}-1-methyl-1H-pyrazole-5-carboxylic acid]
[1]
  activation at 1 µM: < 20%

## O=C1Nc2cc(Cl)c(-c3ccc(-c4ccccc4O)cc3)cc2C1=Cc1csc(C(=O)O)n1 [Example 22]
[1]
  activation at 1 µM: < 20%

## Cn1cc(C=C2C(=O)Nc3cc(Cl)c(-c4ccc(-c5ccccc5)cc4)cc32)cc1C(=O)O [Example 23]
[1]
  activation at 1 µM: < 20%

## C/C(=C1/C(=O)Nc2cc(F)c(-c3ccc(-c4ccccc4O)cc3)cc21)c1cccc(CC(=O)N2CCCC2)c1 [Example 24, (3Z)-6-Fluoro-5-(2′-hydroxybiphenyl-4-yl)-3-(1-{3-[2-oxo-2-(pyrrolidin-1-yl)ethyl]phenyl}ethylidene)-1,3-dihydro-2H-indol-2-one]
[1]
  activation at 1 µM: < 20%

## Cn1cc(C=C2C(=O)N(CCO)c3cc(Cl)c(-c4ccc(-c5ccccc5O)cc4)cc32)cc1C(=O)O [Example 26]
[1]
  activation at 1 µM: < 20%

## CN1C(=O)C(=Cc2cc(C(=O)O)n(C)c2)c2cc(-c3ccc(-c4ccccc4O)cc3)c(Cl)cc21 [Example 29]
[1]
  activation at 1 µM: < 20%

## Cc1ccc(C=C2C(=O)Nc3cc(Cl)c(-c4ccc(-c5ccccc5O)cn4)cc32)cc1CC(=O)O [Example 31]
[1]
  activation at 1 µM: < 20%

## Cc1ccc(C=C2C(=O)Nc3cc(Cl)c(-c4ccc(-c5ccccc5O)cn4)cc32)cc1C(=O)O [Example 32]
[1]
  activation at 1 µM: < 20%

## Cc1ccc(C=C2C(=O)Nc3cc(Cl)c(-c4ccc(-c5ccccc5O)nc4)cc32)cc1CC(=O)O [Example 33]
[1]
  activation at 1 µM: < 20%

## COc1ccc(C=C2C(=O)Nc3cc(Cl)c(-c4ccc(-c5ccccc5O)cn4)cc32)cc1CC(=O)O [Example 34]
[1]
  activation at 1 µM: < 20%

## O=C(O)Cc1cccc(C=C2C(=O)Nc3cc(Cl)c(-c4ccc(-c5ccccc5O)nc4)cc32)c1 [Example 35]
[1]
  activation at 1 µM: < 20%

## Cc1ccc(C=C2C(=O)Nc3cc(Cl)c(-c4ccc(-c5ccccc5O)cc4)nc32)cc1CC(=O)O [Example 36]
[1]
  activation at 1 µM: 20 to 40%

## COc1ccc(C=C2C(=O)Nc3cc(Cl)c(-c4ccc(-c5ccccc5O)cc4)nc32)cc1CC(=O)O [Example 37]
[1]
  activation at 1 µM: > 40%

## COc1ccc(C=C2C(=O)Nc3cc(Cl)c(-c4ccc(-c5ccccc5O)cc4)nc32)cc1C(=O)O [Example 38]
[1]
  activation at 1 µM: 20 to 40%

## Cc1ccc(C=C2C(=O)Nc3cc(Cl)c(-c4ccc(-c5ccncc5)cc4)cc32)cc1CC(=O)O [Example 39]
[1]
  activation at 1 µM: 20 to 40%

## Cn1cc(C=C2C(=O)Nc3cc(F)c(-c4ccc(-c5ccncc5)cc4)cc32)cc1C(=O)O [Example 43]
[1]
  activation at 1 µM: < 20%

## Cc1ccc(C=C2C(=O)Nc3cc(F)c(-c4ccc(-c5ccncc5)cc4)cc32)cc1CC(=O)O [Example 44]
[1]
  activation at 1 µM: < 20%

## Cc1ccc(C=C2C(=O)Nc3cc(Cl)c(-c4ncc(-c5ccccc5O)cn4)cc32)cc1CC(=O)O [Example 45]
[1]
  activation at 1 µM: < 20%

## COc1ccc(C=C2C(=O)Nc3cc(Cl)c(-c4ncc(-c5ccccc5O)cn4)cc32)cc1CC(=O)O [Example 46]
[1]
  activation at 1 µM: < 20%

## Cc1ccc(C=C2C(=O)Nc3cc(Cl)c(-c4ccc(-c5ccc(S(C)(=O)=O)cc5)cc4)cc32)cc1CC(=O)O [Example 48]
[1]
  activation at 1 µM: > 40%
[2]
  Activity beta 2 (at 1 uM): *** (*** >40)

## COc1ccc(C=C2C(=O)Nc3cc(Cl)c(-c4ccc(-c5ccc(-n6cccn6)cc5)cc4)cc32)cc1CC(=O)O [Example 49]
[1]
  activation at 1 µM: > 40%

## Cc1ccc(C=C2C(=O)Nc3cc(Cl)c(-c4ccc(-c5ccc(-n6cncn6)cc5)cc4)cc32)cc1CC(=O)O [Example 50]
[1]
  activation at 1 µM: 20 to 40%

## COc1ccc(C=C2C(=O)Nc3cc(Cl)c(-c4ccc(-c5ccc(-n6cncn6)cc5)cc4)cc32)cc1CC(=O)O [Example 51]
[1]
  activation at 1 µM: > 40%
[2]
  Activity beta 2 (at 1 uM): *** (*** >40)

## O=C(O)Cc1cccc(C=C2C(=O)Nc3cc(Cl)c(-c4ccc(-c5ccc(-n6cncn6)cc5)cc4)cc32)c1 [Example 52]
[1]
  activation at 1 µM: > 40%

## COc1ccc(C=C2C(=O)Nc3cc(F)c(-c4ccc(-c5ccc(-n6cncn6)cc5)cc4)cc32)cc1CC(=O)O [Example 59]
[1]
  activation at 1 µM: > 40%

## COc1ccc(C=C2C(=O)Nc3cc(Cl)c(-c4ccc(-c5ccc(-n6cncn6)cc5)c(F)c4)cc32)cc1CC(=O)O [Example 60]
[1]
  activation at 1 µM: > 40%

## Cc1ccc(C=C2C(=O)Nc3cc(F)c(-c4ccc(-c5ccc(-n6cccn6)cc5)cc4)cc32)cc1C(=O)O [Example 61]
[1]
  activation at 1 µM: > 40%

## Cn1cc(C=C2C(=O)Nc3cc(Cl)c(-c4ccc(-c5ccc(-n6cncn6)cc5)cc4)cc32)cc1C(=O)O [Example 63]
[1]
  activation at 1 µM: > 40%

## Cc1ccc(C=C2C(=O)Nc3cc(F)c(-c4ccc(-c5ccc(-n6ccnn6)cc5)cc4)cc32)cc1C(=O)O [Example 64]
[1]
  activation at 1 µM: > 40%

## Cc1ccc(C=C2C(=O)Nc3cc(F)c(-c4ccc(-c5ccc(-n6cncn6)cc5)cc4)cc32)cc1C(=O)O [Example 65]
[1]
  activation at 1 µM: > 40%

## COc1ccc(C=C2C(=O)Nc3cc(Cl)c(-c4ccc(-c5ccc(-n6ccnc6C)cc5)cc4)cc32)cc1CC(=O)O [Example 66]
[1]
  activation at 1 µM: < 20%

## Cn1c(C=C2C(=O)Nc3cc(Cl)c(-c4ccc(-c5ccc(-n6cncn6)cc5)cc4)cc32)ccc1C(=O)O [Example 69]
[1]
  activation at 1 µM: > 40%

— patent US20160368870A1, “OLEFIN SUBSTITUTED OXINDOLES HAVING AMPK ACTIVITY” (BOEHRINGER INGELHEIM INTERNATIONAL GMBH, priority 2013, published 2016)
